Assay results as given in PMC11078216, “Discovery of potent and selective activity-based probes (ABPs) for the deubiquitinating enzyme USP30” (RSC Chemical Biology, 2024).

Columns and labels:
Assay in all cases: ABPP chemical proteomics (LC-MS/MS) in HEK293T cells
Assay type in all cases: cell-based
[1] = target: T1, ISOC1 (Homo sapiens, UniProt Q96CN7)
T1 construct: endogenous in cells; host or cells: HEK293T
T1 sequence (Q96CN7 1-298): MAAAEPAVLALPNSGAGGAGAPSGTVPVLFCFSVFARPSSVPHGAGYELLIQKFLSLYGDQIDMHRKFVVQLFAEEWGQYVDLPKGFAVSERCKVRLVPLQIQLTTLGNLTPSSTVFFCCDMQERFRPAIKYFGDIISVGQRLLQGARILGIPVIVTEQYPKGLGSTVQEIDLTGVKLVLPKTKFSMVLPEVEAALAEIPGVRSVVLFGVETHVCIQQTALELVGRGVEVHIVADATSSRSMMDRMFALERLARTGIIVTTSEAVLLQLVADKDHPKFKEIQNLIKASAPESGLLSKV
Description: (§1) To explore the selectivity of IMP-2587 and IMP-2586 across the whole proteome, we performed quantitative activity-based protein profiling (ABPP) in HEK293T cells following treatment with IMP-2587 or IMP-2586 (Fig. 3a). After ABP incubation, cells were lysed, and probe-labelled proteins were ligated to biotinylated capture reagents.[27] […] USP30 was outcompeted by corresponding parent inhibitors for each ABP (Fig. 5b and d and Tables S3 and S5, ESI ^†), confirming the high potency and rapid engagement of IMP-2587 and IMP-2586 in cells. […] DESI1 and DESI2 are small ubiquitin-related modifier (SUMO) proteases,[3,29–32] and IMP-2587 and IMP-2586 may offer a starting point for future development of DESI ABPs. […]
(§2) d) Live cell probe incubation, lysate click chemistry and precipitation 6-well HEK293T cells were incubated with media containing compounds ABP 2 and ABP 4 at indicated concentrations for 1 h at 37 °C. The cells were washed with PBS and lysed with lysis buffer (50 μL (1% (v/v) Triton X-100, 0.1% (w/v) sodium dodecyl sulfate (SDS), EDTA-free complete protease inhibitor cocktail (1×, Roche) in PBS on ice for 10 min. The lysates were scraped and transferred to corresponding Lo-Bind Eppendorfs. Each lysate was sonicated for 1 minute, and the samples centrifuges at 5,000 x g at 4 °C for 5 minutes to pellet insoluble cellular debris. The supernatant was collected, and protein concentration was determined using the DC Protein Assay (Bio-Rad) as per manufacturer’s instructions, and normalised to lowest concentrated sample (e.g. 1 mg/mL, using lysis buffer). The following “click mixture” was prepared separately, preparing 6 μL for every 100 μL of […]
(§3) Capture reagent (AzRB/AzT for ABP 2, YnT/YnB for ABP 4 10 mM in DMSO, 1 vol; final concentration […]
(§4) CuSO4 (50 mM in water, 2 vol; final concentration in reaction 1 mM)
(§5) TCEP (50 mM in water, 2 vol; final concentration in reaction 1 mM)
(§6) TBTA (10 mM in DMSO, 1 vol; final concentration in reaction 100 µM)
(§7) The click mixture was vortexed and incubated at room temperature for 2 min before 6 μL of the mixture was added to every 100 μL of lysate. The reaction mixtures were shaken at room temperature for 1 h before being quenched with EDTA (500 mM in H2O) to a final concentration of 10 mM.
(§8) Proteins were precipitated by adding H2O (1 vol), MeOH (2 vol) and CHCl3 (0.5 vol), vortexing briefly then centrifuging at 17,000 × g for 5 min. The top H2O/MeOH layer was discarded and the middle layer of protein pellet and lower CHCl3 layer retained. The suspension was washed with MeOH (300 μL), and sonicated to break up the pellet. The proteins were pelleted by centrifugation at 10,000–17000 × g for 5–10 min or until a compact pellet was formed. The protein pellet was washed once more with MeOH (1 mL). The pellet was resuspended by sonicating and completely dissolving in 1% (w/v) SDS in PBS (to 5 mg/mL protein) before being made up to 1 mg/mL protein with PBS. […]
(§9) f) Neutravidin biotin enrichment (Affinity pull-down)
(§10) Click chemistry and precipitation steps were carried out as described in section 3.2.d, on at least 400ug of protein per sample. The pellet was resuspended by sonicating and completely dissolving in 1% (w/v) SDS in HEPES 50 mM pH 8.0, before being made up to 1 mg/mL protein with HEPES 50 mM pH 8.0 to […]
(§11) achieve a final concentration of 0.2% SDS. 20uL of each samples was collected as TL (Total lysate) samples. Pull down of biotinylated proteins was achieved by incubating samples with pre-equilibrated (3x 1 mL washes with 0.2% (w/v) SDS in HEPES 50 mM pH 8 buffer) Pierce™ NeutrAvidin™ Agarose beads for 3 hours at room temperature. NeutrAvidin™ Agarose beads were used in ratio of 1 μL bead resin per 10ug of protein sample. The beads were subsequently washed by moderate shaking for 10 seconds then briefly pelleting by table-top centrifuge then vacuum aspirating the supernatant with fine-end pipette tips (to not disturb the agarose) after collecting 20 µL supernatant as SN (supernatant […]
(§12) ) samples. […]

[2] = target: T2, USP30 (Homo sapiens, UniProt Q70CQ3); details: for probe concentration for detection of USP30 activity in intact cells: 10 min incubation; for Difference (log2 fold change of enrichment): USP30
T2 construct: We next determined cellular engagement of endogenous USP30 with IMP-2587 or IMP-2586; endogenous in cells; host or cells: HEK293T
T2 sequence (Q70CQ3 1-517): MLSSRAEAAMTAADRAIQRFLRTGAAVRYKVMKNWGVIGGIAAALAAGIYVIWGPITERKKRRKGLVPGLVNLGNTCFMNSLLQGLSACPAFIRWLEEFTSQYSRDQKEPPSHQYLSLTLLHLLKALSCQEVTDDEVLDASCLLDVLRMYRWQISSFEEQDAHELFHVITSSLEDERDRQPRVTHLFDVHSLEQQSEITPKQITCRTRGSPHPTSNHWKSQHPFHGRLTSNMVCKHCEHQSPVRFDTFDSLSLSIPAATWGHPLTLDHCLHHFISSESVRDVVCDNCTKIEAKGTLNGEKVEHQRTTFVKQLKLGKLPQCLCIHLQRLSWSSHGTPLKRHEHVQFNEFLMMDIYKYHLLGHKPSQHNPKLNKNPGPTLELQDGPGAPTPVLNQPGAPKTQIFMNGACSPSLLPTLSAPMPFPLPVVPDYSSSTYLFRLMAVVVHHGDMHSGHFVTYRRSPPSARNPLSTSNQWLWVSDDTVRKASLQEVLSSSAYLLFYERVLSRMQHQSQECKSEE
Description: as §1, §2, §3, §4, §5, §6, §7, §8, §9, §10, §11, §12

[3] = target: T3, ISOC2 (Homo sapiens, UniProt Q96AB3)
T3 construct: endogenous in cells; host or cells: HEK293T
T3 sequence (Q96AB3 1-205): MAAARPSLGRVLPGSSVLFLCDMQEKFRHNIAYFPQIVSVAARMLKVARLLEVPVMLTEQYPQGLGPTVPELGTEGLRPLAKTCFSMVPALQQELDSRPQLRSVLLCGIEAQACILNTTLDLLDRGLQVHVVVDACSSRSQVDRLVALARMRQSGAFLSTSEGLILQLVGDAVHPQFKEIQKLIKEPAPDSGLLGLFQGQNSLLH
Description: as §1, §2, §3, §4, §5, §6, §7, §8, §9, §10, §11, §12

[4] = target: T4, DESI2 (Homo sapiens, UniProt Q9BSY9)
T4 construct: endogenous in cells; host or cells: HEK293T
Description: as §1, §2, §3, §4, §5, §6, §7, §8, §9, §10, §11, §12

[5] = IMP-2586 labelling vs DMSO, 30 nM, 10 min, HEK293T (Table S4, Fig.5c)
[6] = IMP-2587 labelling vs DMSO, 30 nM, 10 min, HEK293T (Table S2, Fig.5a)
[7] = compound 1 out-competition with IMP-2587 labelling, HEK293T (Table S3, Fig.5b)
[8] = compound 3 out-competition with IMP-2586 labelling, HEK293T (Table S5, Fig.5d)

T4 sequence (Q9BSY9 whole entry): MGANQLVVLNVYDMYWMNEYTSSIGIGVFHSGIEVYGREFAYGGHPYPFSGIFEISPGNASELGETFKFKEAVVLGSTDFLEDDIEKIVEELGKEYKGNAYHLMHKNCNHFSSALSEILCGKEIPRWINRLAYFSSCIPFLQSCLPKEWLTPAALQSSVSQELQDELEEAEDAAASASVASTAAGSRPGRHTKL

N#CN1CC[C@@H](NC(=O)c2cc(-c3ccccc3Oc3ccc(N=[N+]=[N-])cc3)n[nH]2)C1 [IMP-2586]
Difference (log2 fold change of enrichment) [1, 5]: 1.71 | probe concentration for detection of USP30 activity in intact cells [2]: 30 nM | Difference (log2 fold change of enrichment) [2, 5]: 4.80 | Difference (log2 fold change of enrichment) [3, 5]: 3.62 | Difference (log2 fold change of enrichment) [4, 5]: 3.40

C#Cc1cccc(-c2cc(NC(=O)CC3CCN(C#N)C3)on2)c1 (centres unmarked) [IMP-2587]
Difference (log2 fold change of enrichment) [1, 6]: 4.06 | probe concentration for detection of USP30 activity in intact cells [2]: 30 nM | Difference (log2 fold change of enrichment) [3, 6]: 3.87 | Difference (log2 fold change of enrichment) [4, 6]: 2.02

N#CN1CC[C@H](CC(=O)Nc2cc(-c3cccc(Cl)c3)no2)C1 [compound 1, reference compound]
Difference (log2 fold change of enrichment) [1, 7]: -3.50 | Difference (log2 fold change of enrichment) [2, 7]: -1.82 | Difference (log2 fold change of enrichment) [3, 7]: -3.53 | Difference (log2 fold change of enrichment) [4, 7]: -1.75

N#CN1CC[C@@H](NC(=O)c2cc(-c3ccccc3Oc3ccccc3)n[nH]2)C1 [compound 3, reference compound]
Difference (log2 fold change of enrichment) [1, 8]: -1.80 | Difference (log2 fold change of enrichment) [2, 8]: -4.18 | Difference (log2 fold change of enrichment) [3, 8]: -3.08 | Difference (log2 fold change of enrichment) [4, 8]: -3.13
